Data taken from patent US12263171B2, “7-, 8-, and 10-substituted amino triazolo quinazoline derivatives as adenosine receptor antagonists, pharmaceutical compositions and their use” (Merck Sharp & Dohme LLC, priority 2018, dated 2025).

Experiments:
[1] = target: human A2a adenosine receptor (Homo sapiens (Human), UniProt P29274); assay: A2a receptor affinity radioligand binding assay ([3H] SCH58261, membranes from HEK293 or CHO cells); settings: unstarred values: radioligand binding
In short: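 Displacement of tritiated SCH58261 (working dilution 4 nM) from recombinant human A2a receptor membranes (HEK293 or CHO), 60 min at room temperature in Tris pH 7.4/MgCl2 buffer after 15–30 min compound preincubation. Scintillation counting after filtration; normalized percent effect fitted 4-parameter logistic for IC50.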

[2] = target: human A2b adenosine receptor (Homo sapiens (Human), UniProt P29275); assay: A2b radioligand filtration binding assay (tritiated proprietary A2b antagonist, HEK293 membranes); settings: for IC50: unstarred values: radioligand binding; for A2B binding % inh. @ 10000 nM: unstarred
In short: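 Displacement of a tritiated proprietary A2b antagonist from membranes of HEK293 cells recombinantly expressing human A2b receptor, measured by filtration and scintillation counting. Percent effect was normalized to total and non-specific binding and fitted with a 4-parameter logistic to give IC50.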

Chain of human A2a adenosine receptor (P29274 whole entry): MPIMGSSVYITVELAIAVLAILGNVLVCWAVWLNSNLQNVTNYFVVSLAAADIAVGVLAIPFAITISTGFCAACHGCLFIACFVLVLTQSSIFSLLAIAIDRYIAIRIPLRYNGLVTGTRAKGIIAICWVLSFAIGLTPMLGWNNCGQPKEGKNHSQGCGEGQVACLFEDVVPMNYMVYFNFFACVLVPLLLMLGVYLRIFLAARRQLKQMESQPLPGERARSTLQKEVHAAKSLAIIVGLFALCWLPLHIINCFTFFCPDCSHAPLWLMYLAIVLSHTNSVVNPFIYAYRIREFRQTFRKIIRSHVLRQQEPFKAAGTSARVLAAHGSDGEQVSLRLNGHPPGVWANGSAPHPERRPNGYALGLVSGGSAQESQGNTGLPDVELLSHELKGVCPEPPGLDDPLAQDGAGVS
Chain of human A2b adenosine receptor (P29275 whole entry): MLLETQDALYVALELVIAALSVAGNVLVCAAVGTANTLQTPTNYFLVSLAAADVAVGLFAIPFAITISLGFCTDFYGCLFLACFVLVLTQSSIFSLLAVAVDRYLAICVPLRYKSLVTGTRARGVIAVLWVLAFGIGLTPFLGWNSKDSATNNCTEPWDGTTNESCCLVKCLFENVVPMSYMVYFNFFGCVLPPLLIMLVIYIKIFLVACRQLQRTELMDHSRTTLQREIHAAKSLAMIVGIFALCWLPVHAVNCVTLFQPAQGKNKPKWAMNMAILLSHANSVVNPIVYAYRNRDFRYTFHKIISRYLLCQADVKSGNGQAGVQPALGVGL

| SMILES | IC50 [1] | IC50 [2] | A2B binding % inh. @ 10000 nM [2] |
| --- | --- | --- | --- |
| COc1cccc2c1nc(N)n1nc([C@@H]3CCCN(c4nccn4C)C3)nc21 [Example 81, (R)-7-methoxy-2-(1-(1-methyl-1H-imidazol-2-yl)piperidin-3-yl)-[1,2,4]triazolo[1,5-c]quinazolin-5-amine] | 1.4 nM | 813 nM |  |
| COc1cccc2c1nc(N)n1nc([C@@H]3CCCN(c4ccn(C)c(=O)c4)C3)nc21 [Example 87, (R)-4-(3-(5-amino-7-methoxy-[1,2,4]triazolo[1,5-c]quinazolin-2-yl)piperidin-1-yl)-1-methylpyridin-2(1H)-one] | 1.5 nM | 858 nM |  |
| COc1cccc2c1nc(N)n1nc([C@@H]3CCCN(c4ccc(=O)n(C)c4)C3)nc21 [Example 88, (R)-5-(3-(5-amino-7-methoxy-[1,2,4]triazolo[1,5-c]quinazolin-2-yl)piperidin-1-yl)-1-methylpyridin-2(1H)-one] | 2 nM | 295 nM |  |
| COc1cccc2c1nc(N)n1nc([C@@H]3CCCN(c4ccc(=O)n(C(F)F)c4)C3)nc21 [Example 92, (R)-5-(3-(5-amino-7-methoxy-[1,2,4]triazolo[1,5-c]quinazolin-2-yl)piperidin-1-yl)-1-(difluoromethyl)pyridin-2(1H)-one] | 0.7 nM | 196 nM |  |
| COc1cccc2c1nc(N)n1nc([C@@H]3CCCN(c4cc(C)c(=O)n(C)c4)C3)nc21 [Example 93] | 1.5 nM | 229 nM |  |
| COc1cccc2c1nc(N)n1nc([C@@H]3CCCN(c4ccc(=O)n(C(C)C)c4)C3)nc21 [Example 96, (R)-5-(3-(5-amino-7-methoxy-[1,2,4]triazolo[1,5-c]quinazolin-2-yl)piperidin-1-yl)-1-isopropylpyridin-2(1H)-one] | 0.6 nM | 291 nM |  |
| COc1cccc2c1nc(N)n1nc([C@@H]3CCCN(c4ccc(=O)n(C)n4)C3)nc21 [Example 98, (R)-6-(3-(5-amino-7-methoxy-[1,2,4]triazolo[1,5-c]quinazolin-2-yl)piperidin-1-yl)-2-methylpyridazin-3(2H)-one] | 1.4 nM | 691 nM |  |
| COc1cccc2c1nc(N)n1nc([C@@H]3CCCN(c4cc(C(F)(F)F)c(=O)n(C)c4)C3)nc21 [Example 99, (R)-5-(3-(5-amino-7-methoxy-[1,2,4]triazolo[1,5-c]quinazolin-2-yl)piperidin-1-yl)-1-methyl-3-(trifluoromethyl)pyridin-2(1H)-one] | 0.6 nM | 98.4 nM |  |
| COc1cccc2c1nc(N)n1nc([C@@H]3CCCN(c4cnc(OC(F)F)c(C)c4)C3)nc21 [Example 100, (R)-2-(1-(6-(difluoromethoxy)-5-methylpyridin-3-yl)piperidin-3-yl)-7-methoxy-[1,2,4]-triazolo[1,5-c]quinazolin-5-amine] | 0.7 nM | 56.8 nM |  |
| COc1cccc2c1nc(N)n1nc([C@@H]3CCCN(c4nccnc4C)C3)nc21 [Example 101, (R)-7-methox-2-(1-(3-methylpyrazin-2-yl)piperidin-3-yl)-[1,2,4]triazolo[1,5-c]quinazolin-5-amine] | 0.5 nM | 178 nM |  |
| COc1cccc2c1nc(N)n1nc([C@@H]3CCCN(c4cnccn4)C3)nc21 [Example 102, (R)-7-methoxy-2-(1-(pyrazin-2-yl)piperidin-3-yl)-[1,2,4]triazolo[1,5-c]quinazolin-5-amine] | 1 nM | 151 nM |  |
| COc1cccc2c1nc(N)n1nc([C@@H]3CCCN(c4cncc(C)n4)C3)nc21 [Example 103, (R)-7-methoxy-2-(1-(6-methylpyrazin-2-yl)piperidin-3-yl)-[1,2,4]triazolo[1,5-c]quinazolin-5-amine] | 1.2 nM | 159 nM |  |
| COc1cccc2c1nc(N)n1nc([C@@H]3CCCN(c4cncc(C(F)(F)F)n4)C3)nc21 [Example 104, (R)-7-methoxy-2-(1-(6-(trifluoromethyl)pyrazin-2-yl)piperidin-3-yl)-[1,2,4]triazolo[1,5-c]quinazolin-5-amine] | 0.1 nM | 3330 nM |  |
| COc1cccc2c1nc(N)n1nc([C@@H]3CCCN(c4cnc(C5CC5)cn4)C3)nc21 [Example 105, (R)-2-(1-(5-cyclopropylpyrazin-2-yl)piperidin-3-yl)-7-methoxy-[1,2,4]triazolo[1,5-c]quinazolin-5-amine] | 0.7 nM | 165 nM |  |
| COc1cccc2c1nc(N)n1nc([C@@H]3CCCN(c4cnc(C)cn4)C3)nc21 [Example 106, (R)-7-methoxy-2-(1-(5-methylpyrazin-2-yl)piperidin-3-yl)-[1,2,4]triazolo[1,5-c]quinazolin-5-amine] | 0.1 nM | 245 nM |  |
| COc1cccc2c1nc(N)n1nc([C@@H]3CCCN(c4ccc(C(C)C)nn4)C3)nc21 [Example 107, (R)-2-(1-(6-isopropylpyridazin-3-yl)piperidin-3-yl)-7-methoxy-[1,2,4]triazolo[1,5-c]quinazolin-5-amine] | 2.1 nM | 275 nM |  |
| COc1cccc2c1nc(N)n1nc([C@@H]3CCCN(c4ccc(F)cn4)C3)nc21 [Example 115, (R)-2-(1-(5-fluoropyridin-2-yl)piperidin-3-yl)-7-methoxy-[1,2,4]triazolo[1,5-c]quinazolin-5-amine] | 1.2 nM | 59.1 nM |  |
| COc1cccc2c1nc(N)n1nc([C@@H]3CCCN(c4ncccn4)C3)nc21 [Example 117, (R)-7-methoxy-2-(1-(pyrimidin-2-yl)piperidin-3-yl)-[1,2,4]triazolo[1,5-c]quinazolin-5-amine] | 0.9 nM | 431 nM |  |
| COc1cccc2c1nc(N)n1nc([C@@H]3CCCN(c4cnn(C5CS(=O)(=O)C5)c4)C3)nc21 [Example 121, (R)-3-(4-(3-(5-amino-7-methoxy-[1,2,4]triazolo[1,5-c]quinazolin-2-yl)piperidin-1-yl)-1H-pyrazol-1-yl)thietane 1,1-dioxide] | 3.6 nM | 284 nM |  |
| COc1cccc2c1nc(N)n1nc([C@@H]3CCCN(c4cnn(C5CCS(=O)(=O)CC5)c4)C3)nc21 [Example 122, (R)-4-(4-(3-(5-amino-7-methoxy-[1,2,4]triazolo[1,5-c]quinazolin-2-yl)piperidin-1-yl)-1H-pyrazol-1-yl)tetrahydro-2H-thiopyran 1,1-dioxide] | 0.1 nM | 58.4 nM |  |
| COc1cccc2c1nc(N)n1nc(C3CC(F)CN(c4cnn(CC(C)(C)O)c4)C3)nc21 (centres unmarked) [Example 149] | 200 nM |  | 32% inh. @ 10000 nM |
| COc1cccc2c1nc(N)n1nc(C3CC(F)CN(c4cnn(CC5(O)CCC5)c4)C3)nc21 (centres unmarked) [Example 150, 1-((4-(3-(5-amino-7-methoxy-[1,2,4]triazolo[1,5-c]quinazolin-2-yl)-5-fluoropiperidin-1-yl)-1H-pyrazol-1-yl)methyl)cyclobutan-1-ol] | 80.5 nM |  | 74% inh. @ 10000 nM |
| COc1cccc2c1nc(N)n1nc(C3CC(F)CN(c4cn(CC(C)(C)O)nc4C)C3)nc21 (centres unmarked) [Example 151, 1-(4-(3-(5-amino-7-methoxy-[1,2,4]triazolo[1,5-c]quinazolin-2-yl)-5-fluoropiperidin-1-yl)-3-methyl-1H-pyrazol-1-yl)-2-methylpropan-2-ol] | 210 nM |  | 27% inh. @ 10000 nM |
| COc1cccc2c1nc(N)n1nc(C3CC(F)CN(c4cnn(CC(C)(C)O)c4C)C3)nc21 (centres unmarked) [Example 152, 1-(4-(3-(5-amino-7-methoxy-[1,2,4]triazolo[1,5-c]quinazolin-2-yl)-5-fluoropiperidin-1-yl)-5-methyl-1H-pyrazol-1-yl)-2-methylpropan-2-ol] | 249 nM |  | 38% inh. @ 10000 nM |
| COc1cccc2c1nc(N)n1nc([C@@H]3CCN(c4cnn(CC5CC5)c4)C3)nc21 [Example 162, (R)-2-(1-(1-(cyclopropylmethyl)-1H-pyrazol-4-yl)pyrrolidin-3-yl)-7-methoxy[1,2,4]triazolo[1,5-c]quinazolin-5-amine] | 7.8 nM | 17.6 nM |  |
| COc1cccc2c1nc(N)n1nc(C3CCCCN(c4cn(C)nn4)C3)nc21 (centres unmarked) [Example 175] | 0.1 nM | 23.2 nM |  |
| COc1ccc2c(c1)nc(N)n1nc([C@@H]3CCCN(c4cnn(CC5(O)CCC5)c4)C3)nc21 [Example 176] | 0.7 nM | 189 nM |  |

Results, then the molecule that gave them:

| IC50 [1] | IC50 [2] | A2B binding % inh. @ 10000 nM [2] | SMILES |
| --- | --- | --- | --- |
| 862 nM |  | 18% inh. @ 10000 nM | COc1cccc2c1nc(N)n1nc(C3CCCN(c4cnn(C)c4)[C@H]3C)nc21 (some centres unmarked) [Example 128A] |
| 6300 nM |  | 14% inh. @ 10000 nM | COc1cccc2c1nc(N)n1nc(C3CCCN(c4cnn(C)c4)[C@@H]3C)nc21 (some centres unmarked) [Example 128B] |
| 29 nM | 1980 nM |  | COc1cccc2c1nc(N)n1nc([C@@H]3CCC[C@H](c4cnn(C)c4)C3)nc21 [Example 136D] |
| 167 nM | 2460 nM |  | COc1cccc2c1nc(N)n1nc([C@H]3CCO[C@@H](c4cnn(C)c4)C3)nc21 [Example 139A] |
| 3.2 nM | 1910 nM |  | COc1cccc2c1nc(N)n1nc([C@@H]3CCO[C@@H](c4cnn(C)c4)C3)nc21 [Example 139B] |
| 101 nM | 1820 nM |  | COc1cccc2c1nc(N)n1nc([C@H]3CCO[C@H](c4cnn(C)c4)C3)nc21 [Example 139C] |
| 58.3 nM | 5290 nM |  | COc1cccc2c1nc(N)n1nc([C@@H]3CCO[C@H](c4cnn(C)c4)C3)nc21 [Example 139D] |
| 1.3 nM | 758 nM |  | CCn1cc(N2C[C@H](c3nc4c5cccc(OC)c5nc(N)n4n3)CC[C@H]2C)cn1 [Example 140B] |
| 0.6 nM | 11.2 nM |  | CCn1cc(N2C[C@@H](c3nc4c5cccc(OC)c5nc(N)n4n3)CC[C@@H]2C)cn1 [Example 140C] |
| 1.2 nM | 57.2 nM |  | COc1cccc2c1nc(N)n1nc([C@H]3CC[C@H](C)N(c4cn(CC(C)(C)O)nc4C)C3)nc21 [Example 145B] |
